The values that follow come from ChEMBL document CHEMBL1136269, “Discovery of a series of (4,5-dihydroimidazol-2-yl)-biphenylamine 5-HT7 agonists” (Bioorg Med Chem Lett, 2003).

Experiment [1] deals with T1, Adrenergic receptor alpha-2 (Rattus norvegicus, UniProt P22086+P19328+P22909).
T1 sequence (P22086 whole entry): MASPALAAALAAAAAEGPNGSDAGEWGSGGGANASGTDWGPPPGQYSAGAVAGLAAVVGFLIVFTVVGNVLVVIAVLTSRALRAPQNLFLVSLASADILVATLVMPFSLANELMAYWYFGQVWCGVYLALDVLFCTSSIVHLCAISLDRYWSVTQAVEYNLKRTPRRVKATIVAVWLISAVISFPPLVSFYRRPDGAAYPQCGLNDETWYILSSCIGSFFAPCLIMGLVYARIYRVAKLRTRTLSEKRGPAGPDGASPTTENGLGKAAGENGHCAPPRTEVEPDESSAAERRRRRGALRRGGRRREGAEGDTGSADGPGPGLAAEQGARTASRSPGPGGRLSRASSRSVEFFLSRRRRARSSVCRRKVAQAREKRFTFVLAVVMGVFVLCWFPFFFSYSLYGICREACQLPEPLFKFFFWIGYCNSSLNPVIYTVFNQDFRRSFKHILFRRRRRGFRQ
T1 sequence (P19328 whole entry): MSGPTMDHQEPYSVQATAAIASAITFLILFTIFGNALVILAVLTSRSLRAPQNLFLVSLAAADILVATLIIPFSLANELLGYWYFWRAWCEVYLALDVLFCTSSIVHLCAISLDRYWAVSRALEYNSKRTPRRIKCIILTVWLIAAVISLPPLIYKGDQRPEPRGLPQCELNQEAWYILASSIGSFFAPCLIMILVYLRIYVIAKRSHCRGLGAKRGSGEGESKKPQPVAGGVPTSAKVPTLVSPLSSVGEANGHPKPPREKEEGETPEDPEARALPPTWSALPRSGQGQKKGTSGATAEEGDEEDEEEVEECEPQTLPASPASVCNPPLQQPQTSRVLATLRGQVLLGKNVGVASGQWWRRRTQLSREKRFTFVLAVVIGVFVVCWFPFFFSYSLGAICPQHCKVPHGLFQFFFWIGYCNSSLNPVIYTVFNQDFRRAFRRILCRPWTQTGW
T1 sequence (P22909 whole entry): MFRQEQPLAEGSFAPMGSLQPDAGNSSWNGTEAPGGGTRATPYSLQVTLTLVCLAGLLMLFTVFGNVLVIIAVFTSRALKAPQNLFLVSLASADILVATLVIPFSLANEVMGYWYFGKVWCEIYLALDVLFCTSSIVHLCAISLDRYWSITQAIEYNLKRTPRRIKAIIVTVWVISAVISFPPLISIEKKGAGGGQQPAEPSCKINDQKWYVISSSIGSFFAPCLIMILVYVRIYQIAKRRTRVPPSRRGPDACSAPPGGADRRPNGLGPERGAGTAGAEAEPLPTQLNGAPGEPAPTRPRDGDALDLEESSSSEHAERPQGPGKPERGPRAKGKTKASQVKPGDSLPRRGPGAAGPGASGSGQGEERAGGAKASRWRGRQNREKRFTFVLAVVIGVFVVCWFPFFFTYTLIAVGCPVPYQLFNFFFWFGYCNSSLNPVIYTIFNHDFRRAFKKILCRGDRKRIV
Kind of experiment: Affinity for Alpha-2 adrenergic receptor of rat cortical membranes.

Experiment [2] has as its target 5-hydroxytryptamine receptor 7 (Rattus norvegicus, UniProt P32305). Description: Inhibition of [3H]-5-CT binding to 5-hydroxytryptamine 7 receptor of rat cortical membranes. The experiment is classed as cell membranes, Membrane.
In experiment [3] the target is T2, Adrenergic receptor alpha-1 (Rattus norvegicus, UniProt P15823+P23944+P43140).
T2 sequence (P15823 whole entry): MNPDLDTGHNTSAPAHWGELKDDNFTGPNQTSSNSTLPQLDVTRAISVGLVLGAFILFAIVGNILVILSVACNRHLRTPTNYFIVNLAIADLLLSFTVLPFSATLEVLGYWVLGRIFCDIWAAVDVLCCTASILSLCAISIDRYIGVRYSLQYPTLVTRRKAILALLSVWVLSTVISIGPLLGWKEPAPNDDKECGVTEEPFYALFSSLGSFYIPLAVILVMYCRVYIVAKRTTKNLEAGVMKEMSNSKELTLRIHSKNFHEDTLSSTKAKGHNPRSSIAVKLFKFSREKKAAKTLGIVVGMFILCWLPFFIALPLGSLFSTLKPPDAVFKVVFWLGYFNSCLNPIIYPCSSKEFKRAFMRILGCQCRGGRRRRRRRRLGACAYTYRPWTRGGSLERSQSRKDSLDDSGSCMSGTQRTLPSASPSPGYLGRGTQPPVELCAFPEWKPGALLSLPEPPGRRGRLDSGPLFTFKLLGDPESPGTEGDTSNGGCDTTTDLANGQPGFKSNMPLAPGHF
T2 sequence (P23944 whole entry): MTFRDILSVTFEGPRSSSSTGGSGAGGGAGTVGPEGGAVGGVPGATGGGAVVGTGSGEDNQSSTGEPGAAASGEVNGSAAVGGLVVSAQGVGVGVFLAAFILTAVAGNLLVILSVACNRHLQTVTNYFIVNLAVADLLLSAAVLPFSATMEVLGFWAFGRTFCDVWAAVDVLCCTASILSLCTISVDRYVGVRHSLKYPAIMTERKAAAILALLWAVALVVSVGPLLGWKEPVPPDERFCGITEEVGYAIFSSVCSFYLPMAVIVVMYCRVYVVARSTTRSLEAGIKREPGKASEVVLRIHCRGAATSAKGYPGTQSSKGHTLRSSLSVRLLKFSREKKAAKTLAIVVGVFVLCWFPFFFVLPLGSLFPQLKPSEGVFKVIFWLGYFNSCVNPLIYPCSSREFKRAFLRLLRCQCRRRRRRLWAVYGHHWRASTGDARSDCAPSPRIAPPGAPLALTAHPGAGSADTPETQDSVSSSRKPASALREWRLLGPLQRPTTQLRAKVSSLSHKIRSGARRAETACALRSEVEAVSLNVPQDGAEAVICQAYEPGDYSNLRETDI
T2 sequence (P43140 whole entry): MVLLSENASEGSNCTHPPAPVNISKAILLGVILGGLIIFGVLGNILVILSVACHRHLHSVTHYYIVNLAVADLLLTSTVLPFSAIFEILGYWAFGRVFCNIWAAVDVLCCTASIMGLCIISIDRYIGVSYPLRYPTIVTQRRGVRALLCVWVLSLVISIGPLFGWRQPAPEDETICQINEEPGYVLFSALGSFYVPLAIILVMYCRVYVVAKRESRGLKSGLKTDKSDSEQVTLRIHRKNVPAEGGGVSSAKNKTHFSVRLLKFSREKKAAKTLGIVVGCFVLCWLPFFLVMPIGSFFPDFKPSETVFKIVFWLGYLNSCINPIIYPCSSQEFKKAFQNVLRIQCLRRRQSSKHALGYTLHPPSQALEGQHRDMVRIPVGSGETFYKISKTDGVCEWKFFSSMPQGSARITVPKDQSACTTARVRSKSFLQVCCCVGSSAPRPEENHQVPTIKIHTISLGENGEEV
Description: Affinity for Alpha-1 adrenergic receptor of rat cortical membranes.

Chain of 5-hydroxytryptamine receptor 7 (P32305 whole entry): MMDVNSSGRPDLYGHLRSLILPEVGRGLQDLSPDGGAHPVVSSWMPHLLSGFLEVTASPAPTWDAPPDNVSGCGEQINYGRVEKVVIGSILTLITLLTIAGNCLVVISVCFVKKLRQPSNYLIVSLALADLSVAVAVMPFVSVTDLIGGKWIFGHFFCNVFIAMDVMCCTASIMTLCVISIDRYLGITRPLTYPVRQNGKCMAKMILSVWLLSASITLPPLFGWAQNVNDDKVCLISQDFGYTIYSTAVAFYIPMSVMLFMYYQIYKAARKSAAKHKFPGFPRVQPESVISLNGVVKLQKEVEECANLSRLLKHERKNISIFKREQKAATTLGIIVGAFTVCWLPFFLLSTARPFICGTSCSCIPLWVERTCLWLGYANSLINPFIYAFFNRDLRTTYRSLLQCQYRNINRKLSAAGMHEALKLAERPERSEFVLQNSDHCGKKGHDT

What is called Ki is a measure of affinity in units of concentration, obtained from inhibition or displacement. Lower therefore signals higher affinity. For `COc1ccc(-c2cccc(NC3=NCCN3)c2C)cc1`, the figures for the “Log Ki” value in experiment [1] and in experiment [3] were -7.59 and -6.58, respectively. For the same molecule, in experiment [2], the Ki was 27.5 nM.

`Cc1c(NC2=NCCN2)cccc1-c1cccnc1`: the figures for the “Log Ki” value in experiment [1] and in experiment [3] were -8.29 and -6.59, respectively. In experiment [2], the inhibitory constant (Ki) is 257 nM.

On to `Cc1c(NC2=NCCN2)cccc1-c1cccc(Cl)c1`, for which the “Log Ki” value in experiment [1] is reported as -7.62; in experiment [3] it was -6.88. In addition, in experiment [2], the Ki is 26.3 nM.

For `Cc1c(NC2=NCCN2)cccc1-c1cccs1`, the “Log Ki” value in experiment [1] is -8.21; in experiment [3], -6.99. In experiment [2], the affinity corresponds to a Ki of 16.6 nM.

On to `CC(=O)c1cccc(-c2cccc(NC3=NCCN3)c2C)c1.Cl`, for which the “Log Ki” value is listed as -7.49 in experiment [1] and -7.05 in experiment [3]. For the same molecule, in experiment [2], the Ki was 155 nM.

As to `Cc1c(NC2=NCCN2)cccc1-c1cccc(C#N)c1.Cl`, the “Log Ki” value in experiment [1] is -7.66; in experiment [3] it was -7.04. In addition, in experiment [2], the Ki was 170 nM.

`Cc1c(NC2=NCCN2)cccc1-c1ccsc1`: the results for the “Log Ki” value in experiment [1] and in experiment [3] were -7.96 and -7.16, respectively. In experiment [2], this molecule gave a Ki of 31.6 nM.

`Cc1c(NC2=NCCN2)cccc1-c1cccc(C(F)(F)F)c1`: the “Log Ki” value in experiment [1] is -7.1; in experiment [3], -6.59. For the same molecule, the Ki in experiment [2] was 45.7 nM.

For the molecule `Cc1c(NC2=NCCN2)cccc1-c1cccc(F)c1`, the “Log Ki” value in experiment [1] is reported as -7.58; in experiment [3], -6.56. Further, in experiment [2], affinity was put at a Ki of 28.2 nM.

`Cc1cccc(-c2cccc(NC3=NCCN3)c2C)c1`: the “Log Ki” value was -7.75 in experiment [1] and -6.78 in experiment [3]. The Ki in experiment [2] was 21.4 nM.

Regarding `Cc1c(NC2=NCCN2)cccc1-c1ccccc1`, the “Log Ki” value in experiment [1] is -7.71; in experiment [3] it was -6.68. This molecule also gave a Ki in experiment [2] of 16.2 nM.

For `COc1ccc(-c2cccc(NC3=NCCN3)c2C)c(OC)c1`, the “Log Ki” value is listed as -7.13 in experiment [1] and -6.68 in experiment [3]. The same molecule had an inhibition constant Ki in experiment [2] of 40.7 nM.

As for `COc1cccc(-c2cccc(NC3=NCCN3)c2C)c1`, the “Log Ki” value in experiment [1] is -8; in experiment [3], -7.36. The Ki in experiment [2] was 35.5 nM.

As to `Cc1c(NC2=NCCN2)cccc1-c1cccc(C(C)C)c1`, the “Log Ki” value in experiment [1] is -6.96; in experiment [3], -5.92. Moreover, the Ki in experiment [2] was 182 nM.
